{
  "source": "patent US6632668B2",
  "about": "“Monolayer sheet structure of primary hepatocytes obtained using a protein-phosphorylation inhibitor” (Japan as represented by the Secretary of Agency of …, priority 2000, dated 2003)",
  "key": {"primary hepatocytes": {"test_system": "primary hepatocytes", "assay": "Monolayer formation of primary hepatocytes on collagen-coated plates, phase contrast microscope observation", "format": "cell-based, rat", "details": "50 nM staurosporine, 4 h + 20 h standing culture", "experimental": "In order to isolate primary hepatocytes, rat livers were used and primary hepatocytes were isolated from the rat livers by ordinary methods, that was, by collagenase perfusion followed method and four subsequent low-speed centrifuge isolation. The hepatocytes were suspended in an animal cell culture medium (Williams' E medium) containing 10 nM Dexamethasone and 10% fetal bovine serum, and seeded at a cell concentration of 10×10^4 cell/cm^2 on 6-well cell culture plastic plates coated with type I collagen. For the samples to be treated, staurosporine was added to the medium to a final concentration of 50 nM. Next, they were subjected to standing culture for 4 hours at 37° C. in a CO2 incubator in the presence of 5% (v/v) CO2, and the medium was replaced with Williams' E medium containing 10 nM insulin, 10 nM dexamethasone and 0.7 μg/ml aprotinin. For the samples to be treated, staurosporine was again added to the medium to a final concentration of 50 nM. Finally, after the standing culture for 20 hours, the condition of the cells was observed through a phase contrast microscope.\nThe results in FIG. 1 show clearly that in the case of the hepatocytes not treated with staurosporine, cell aggregates are formed, which comprises intermittently linked patch-like discontinuous monolayers of one to tens of cells."}, "[1]": {"test_system": "primary rat hepatocytes monolayer", "assay": "Dye permeation assay using transwell filters (bromphenol-blue, OD 655 nm)", "format": "cell-based", "details": "staurosporine-treated monolayer on transwell filters", "experimental": "In parallel with Example 1 above, primary rat hepatocytes were seeded on transwell filters (3-micron pore polytetrafluoroethylene coated with type I collagen) suitable to 24-well cell culture plates, and differences in the tightness of the cell monolayer structure produced by staurosporine treatment were measured by a dye permeation assay.\nIn the dye permeation assay using transwell filters shown in A of FIG. 2, primary hepatocytes were seeded on transwell filters installed in wells on 24-well cell culture plates, and after the monolayer thereof was formed, 20 μl of dye (0.25% bromphenol-blue dye) was added to the upper liquid layer (medium) on the filter. 50 μl samples were then taken with the passage of time from the lower liquid layer (medium) on the filter at a constant temperature of 37° C., and absorbancy thereof (OD 655 nm) was measured.\nIn the results of B of FIG. 2, courses with the passage of time of dye permeation through hepatocytes layers formed by conventional methods on transwell filters are indicated by the white circles ◯, while courses of dye permeation through hepatocytes layers formed by the methods of this invention are indicated by black circles ●. […]"}},
  "data": [
    {"smiles": "CNC1CC2OC(C)(C1OC)n1c3ccccc3c3c4c(c5c6ccccc6n2c5c31)C(=O)NC4", "note": "(stereo not drawn) [staurosporine, [9S-(9a,10b,11b,13a)]-9,13-epoxy-2,3,10,11,12,13-hexahydro-10-methoxy-9-methyl-11-(methylamino)-1H,9H-diindolo[1,2,3-gh:3′,2′,1′-1m]pyrrolo[3,4-j][1,7]benzodiazonin-1-one]", "values": [
      {"measurement": "cell aggregates formed (monolayer structure)", "setting": "primary hepatocytes; phase contrast microscope x200", "result": "a confluent continuous monolayer sheet of closely adjoining cells"},
      {"measurement": "adhesion (attachment) and extension (spreading) of hepatocytes on culture substrate", "setting": "primary hepatocytes; type I collagen coated plates, versus untreated hepatocytes", "result": "improved"},
      {"measurement": "permeation of dye through hepatocytes monolayer", "setting": "[1]; 0.25% bromphenol-blue, 37° C., versus untreated cell layers", "result": "much less permeation of dye than that of the untreated cell layers"},
      {"measurement": "tightness between cells", "setting": "[1]; concluded from dye permeation", "result": "greatly enhanced"}
    ]}
  ]
}
